Data on 36 molecules can be found in patent US6015838A, “Aqueous film-forming foam compositions” (3M Innovative Properties Company, priority 1996, dated 2000).

One data set is described as follows: Surface tension and critical micelle concentration (CMC) of aqueous surfactant solutions. The class given is physicochemical. The settings on record: Table 3; deionized water.
Excerpt: Critical Micelle Concentration (CMC): The critical micelle concentration is defined as the concentration at which further surface tension is no longer lowered with increasing levels of surfactant. […] Surface tension is then plotted vs. log concentration and the data points are connected. The resulting curve has a nearly horizontal flat portion at concentrations above the CMC and has a negative steep slope at concentrations below the CMC. The CMC is defined as the lowest surfactant concentration in the horizontal flat portion of the curve.
(§1) Then the critical micelle concentration (CMC) was determined for each surfactant.
as §1
With `C[N+](C)([O-])CCCNC(=O)C(F)(C(F)(F)C(F)(F)C(F)(F)F)C(F)(F)C(F)(F)C(F)(F)C(F)(F)C(F)(F)C(F)(F)C(F)(F)F` (centres unmarked) [Example E7, C7 F15 CF(C3 F7)CONH(CH2)3 N^+ (CH3)2 O^-], the “solubility” value was “low solub”.

Take `O=C(NCCC[N+]1([O-])CCOCC1)C(F)(C(F)(F)F)C(F)(F)C(F)(F)C(F)(F)C(F)(F)C(F)(F)C(F)(F)C(F)(F)F` (centres unmarked) [Example E9]: the “solubility” value is “low solub”. Molecule `O=C(NCCC[N+]1(CCO)CCOCC1)C(F)(C(F)(F)F)C(F)(F)C(F)(F)C(F)(F)C(F)(F)C(F)(F)C(F)(F)C(F)(F)F` (centres unmarked) [Example F5] had a CMC of 1000 ppm.

The molecule `O=C([O-])CC[N+]1(CCCNC(=O)C(F)(C(F)(F)F)C(F)(F)C(F)(F)C(F)(F)C(F)(F)C(F)(F)C(F)(F)C(F)(F)F)CCOCC1` (centres unmarked) [Example K3] had a CMC of 1000 ppm.

The same data set, now with this note: Table 3; deionized water, at CMC.
With `C[N+](C)([O-])CCCNC(=O)C(F)(C(F)(F)F)C(F)(F)C(F)(F)C(F)(F)C(F)(F)C(F)(F)C(F)(F)C(F)(F)F` (centres unmarked) [Example E1, C7 F15 CF(CF3)CONH(CH2)3 N^+ (CH3)2 O^-], the “Surf Tens. (surface tension at the CMC)” value is on record as 16.3 dynes/cm.

Regarding `C[N+](C)([O-])CCCNC(=O)C(F)(C(F)(F)F)C(F)(F)C(F)(F)C(F)(F)C(F)(F)C(F)(F)F` (centres unmarked) [Example E2, C5 F11 CF(CF3)CONH(CH2)3 N^+ (CH3)2 O^-], the “Surf Tens. (surface tension at the CMC)” value was found to be 17.5 dynes/cm. Consider `C[N+](C)([O-])CCCNC(=O)C(F)(C(F)(F)F)C(F)(F)C(F)(F)C(F)(F)C(F)(F)C(F)(F)C(F)(F)F` (centres unmarked) [Example E3, C6 F13 CF(CF3)CONH(CH2)3 N^+ (CH3)2 O^-], for which the “Surf Tens. (surface tension at the CMC)” value is 16.6 dynes/cm.

`C[N+](C)([O-])CCCNC(=O)C(F)(C(F)(F)F)C(F)(F)C(F)(F)C(F)(F)C(F)(F)C(F)(F)C(F)(F)C(F)(F)C(F)(F)F` (centres unmarked) [Example E4, C8 F17 CF(CF3)CONH(CH2)3 N^+ (CH3)2 O^-]: the “Surf Tens. (surface tension at the CMC)” value is reported as 16.5 dynes/cm. As for `C[N+](C)([O-])CCCNC(=O)C(F)(C(F)(F)F)C(F)(F)C(F)(F)C(F)(F)C(F)(F)C(F)(F)C(F)(F)C(F)(F)C(F)(F)C(F)(F)C(F)(F)F` (centres unmarked) [Example E5, C10 F21 CF(CF3)CONH(CH2)3 N^+ (CH3)2 O^-], the “Surf Tens. (surface tension at the CMC)” value was 17.1 dynes/cm. As for `C[N+](C)([O-])CCCN(CCO)C(=O)C(F)(C(F)(F)F)C(F)(F)C(F)(F)C(F)(F)C(F)(F)C(F)(F)C(F)(F)C(F)(F)F` (centres unmarked) [Example E8, C7 F15 CF(CF3)CON(C2 H4 OH)(CH2)3 N^+ (CH3)2 O^-], the “Surf Tens. (surface tension at the CMC)” value is 16.6 dynes/cm. The same measure, in the same setting: in the case of `O=C(NCCOC(=O)C(F)(C(F)(F)F)C(F)(F)C(F)(F)C(F)(F)C(F)(F)C(F)(F)C(F)(F)C(F)(F)F)c1cc[n+]([O-])cc1` (centres unmarked) [Example E10] it was 14.5 dynes/cm; in that of `O=C(NCCOC(=O)C(F)(C(F)(F)F)C(F)(F)C(F)(F)C(F)(F)C(F)(F)C(F)(F)C(F)(F)F)c1cc[n+]([O-])cc1` (centres unmarked) [Example E11], 15.5 dynes/cm. With `O=C(OCCc1cccc[n+]1[O-])C(F)(C(F)(F)F)C(F)(F)C(F)(F)C(F)(F)C(F)(F)C(F)(F)C(F)(F)F` (centres unmarked) [Example E12], the “Surf Tens. (surface tension at the CMC)” value is 18.3 dynes/cm.

Turning to `O=C(OCCc1cccc[n+]1[O-])C(F)(C(F)(F)F)C(F)(F)C(F)(F)C(F)(F)C(F)(F)C(F)(F)C(F)(F)C(F)(F)F` (centres unmarked) [Example E13], the “Surf Tens. (surface tension at the CMC)” value is given as 15.0 dynes/cm.

Consider `C[n+]1ccc(C(=O)NCCOC(=O)C(F)(C(F)(F)F)C(F)(F)C(F)(F)C(F)(F)C(F)(F)C(F)(F)C(F)(F)C(F)(F)F)cc1` (centres unmarked) [Example F1], for which the “Surf Tens. (surface tension at the CMC)” value is reported as 15.0 dynes/cm. `C[n+]1ccc(C(=O)NCCOC(=O)C(F)(C(F)(F)F)C(F)(F)C(F)(F)C(F)(F)C(F)(F)C(F)(F)C(F)(F)F)cc1` (centres unmarked) [Example F2]: the “Surf Tens. (surface tension at the CMC)” value amounted to 15.5 dynes/cm. As for `C[N+](C)(CCO)CCCNC(=O)C(F)(C(F)(F)F)C(F)(F)C(F)(F)C(F)(F)C(F)(F)C(F)(F)F` (centres unmarked) [Example F3], the “Surf Tens. (surface tension at the CMC)” value was 17.0 dynes/cm. As to `C[N+](C)(CCO)CCCNC(=O)C(F)(C(F)(F)F)C(F)(F)C(F)(F)C(F)(F)C(F)(F)C(F)(F)C(F)(F)C(F)(F)F` (centres unmarked) [Example F4], the “Surf Tens. (surface tension at the CMC)” value amounted to 19.0 dynes/cm. Turning to `O=C(NCCC[N+]1(CCO)CCOCC1)C(F)(C(F)(F)F)C(F)(F)C(F)(F)C(F)(F)C(F)(F)C(F)(F)C(F)(F)C(F)(F)F` (centres unmarked) [Example F5], the “Surf Tens. (surface tension at the CMC)” value amounted to 20.8 dynes/cm. The same measure, in the same setting: the result for `CN(C)CCCN(CCCN(C)C)C(=O)C(F)(C(F)(F)F)C(F)(F)C(F)(F)C(F)(F)C(F)(F)C(F)(F)C(F)(F)C(F)(F)F` (centres unmarked) [Example F9, C7 F15 CF(CF3)CON[C3 H6 N^+ (CH3)2 H]2 2[^- OOCCH3]] reads 22.0 dynes/cm. For the molecule `C[N+](C)(CCCNC(=O)C(F)(C(F)(F)F)C(F)(F)C(F)(F)C(F)(F)C(F)(F)C(F)(F)C(F)(F)C(F)(F)F)CCC(=O)[O-]` (centres unmarked) [Example K1, C7 F15 CF(CF3)CONH(CH2)3 N^+ (CH3)2 C2 H4 COO^-], the “Surf Tens. (surface tension at the CMC)” value was 16.6 dynes/cm. `O=C([O-])CC[N+]1(CCCNC(=O)C(F)(C(F)(F)F)C(F)(F)C(F)(F)C(F)(F)C(F)(F)C(F)(F)C(F)(F)C(F)(F)F)CCOCC1` (centres unmarked) [Example K3]: the “Surf Tens. (surface tension at the CMC)” value was 19.2 dynes/cm.

As to `C[N+](C)(CCCN(CCC[N+](C)(C)CCC(=O)[O-])C(=O)C(F)(C(F)(F)F)C(F)(F)C(F)(F)C(F)(F)C(F)(F)C(F)(F)C(F)(F)C(F)(F)F)CCC(=O)[O-]` (centres unmarked) [Example K4], the “Surf Tens. (surface tension at the CMC)” value stood at 23.6 dynes/cm. In the case of “C6 F13 CF(CF3)CON(C3 H6 SO3^-)(CH2)3 N^+ (CH3)2 H [Example K2]”, the “Surf Tens. (surface tension at the CMC)” value turned out to be 20.3 dynes/cm. Consider “C8 F17 CF(CF3)CO(OCH2 CH2)16 OCH3 [Example J1]”, for which the “Surf Tens. (surface tension at the CMC)” value is given as 22 dynes/cm.

Still in this data set, the particulars now being: Table 5; deionized water, at CMC.
Consider `O=C(O)C(F)(C(F)(F)F)C(F)(F)C(F)(F)C(F)(F)C(F)(F)C(F)(F)F` (centres unmarked) [Example M15, C5 F11 CF(CF3)COO^- H4 N^+], for which the “Surf. Tens. (surface tension at the CMC)” value was 22.1 dynes/cm. On the same count and under the same terms, in the case of `O=C(O)C(F)(C(F)(F)F)C(F)(F)C(F)(F)C(F)(F)C(F)(F)C(F)(F)C(F)(F)F` (centres unmarked) [Example M16, C6 F13 CF(CF3)COO^- H4 N^+] it was 17.9 dynes/cm; in that of `O=C(O)C(F)(C(F)(F)F)C(F)(F)C(F)(F)C(F)(F)C(F)(F)C(F)(F)C(F)(F)C(F)(F)F` (centres unmarked) [Example M20, C7 F15 CF(CF3)COO^- H3 N^+ C2 H4 OH], 15.0 dynes/cm; in that of `O=C(O)C(F)(C(F)(F)F)C(F)(F)C(F)(F)C(F)(F)C(F)(F)C(F)(F)C(F)(F)F` (centres unmarked) [Example M22, C6 F13 CF(CF3)COO^- K^+], 17.5 dynes/cm. Turning to `O=C(O)C(F)(C(F)(F)F)C(F)(F)C(F)(F)C(F)(F)C(F)(F)C(F)(F)C(F)(F)C(F)(F)F` (centres unmarked) [Example M23, C7 F15 CF(CF3)COO^- K^+], the “Surf. Tens. (surface tension at the CMC)” value was 15.0 dynes/cm. As for `O=C(O)C(F)(C(F)(F)F)C(F)(F)C(F)(F)C(F)(F)C(F)(F)C(F)(F)C(F)(F)C(F)(F)C(F)(F)F` (centres unmarked) [Example M24, C8 F17 CF(CF3)COO^- K^+], the “Surf. Tens. (surface tension at the CMC)” value is 16.4 dynes/cm. Still for that read-out and setting: the result for `O=C(O)C(F)(C(F)(F)F)C(F)(F)C(F)(F)C(F)(F)C(F)(F)C(F)(F)C(F)(F)F` (centres unmarked) [Example M25, C6 F13 CF(CF3)COO^- Na^+] reads 19.8 dynes/cm. For `O=C(O)C(F)(C(F)(F)F)C(F)(F)C(F)(F)C(F)(F)C(F)(F)C(F)(F)C(F)(F)C(F)(F)F` (centres unmarked) [Example M26, C7 F15 CF(CF3)COO^- Na^+], the “Surf. Tens. (surface tension at the CMC)” value came to 19.4 dynes/cm.

Consider `O=C(O)C(F)(C(F)(F)F)C(F)(F)C(F)(F)C(F)(F)C(F)(F)C(F)(F)C(F)(F)C(F)(F)F` (centres unmarked) [Example M27, C7 F15 CF(CF3)COO^- Li^+], for which the “Surf. Tens. (surface tension at the CMC)” value was 24.1 dynes/cm. On the same count and under the same terms, the result for `O=C(O)C(F)(C(F)(F)F)C(F)(F)C(F)(F)C(F)(F)C(F)(F)C(F)(F)C(F)(F)C(F)(F)F` (centres unmarked) [Example M30, C7 F15 CF(CF3)COO^- 1/2[H3 N^+ C2 H4 NHC2 H4 N^+ H3]] reads 16.2 dynes/cm.

A short description of the next data set: Thermogravimetric analysis of neat perfluorocarboxylate salts. The class given is physicochemical. The settings on record: neat salt, 10° C./min, nitrogen. An excerpt:
Thermal degradation measurements were made on a series of neat perfluorocarboxylate salts, including several ax-branched open chain structures (Examples N2-N9), a primarily linear open chain structure (Example N10--Fluorad™ FC-143 Fluorochemical Surfactant, commercially available from 3M Company, St. Paul, Minn.), and a closed chain (i.e., cyclic) structure (Example N11--made by the electrochemical fluorination of benzoic acid and hydrolysis in the presence of KOH, as described in U.S. Pat. No. 2,567,011 (Diesslin et al.)).
The perfluorocarboxylate salts were tested using a Perkin-Elmer TGA 7 thermogravimetric analysis apparatus and a salt sample size of approximately 5 mg, a heating rate of 10° C./min, and a nitrogen gas flow rate of 40-45 mL/min. Using the TGA 7 software, the following temperatures were recorded: (1) the onset temperature of decomposition, (2) the temperature at which 50% of the sample weight was lost, and (3) the temperature at which 90% of the sample weight was lost.
As for `O=C(O)C(F)(C(F)(F)F)C(F)(F)C(F)(F)C(F)(F)C(F)(F)C(F)(F)C(F)(F)F` (centres unmarked) [Example M16, C6 F13 CF(CF3)COO^- H4 N^+], the “onset temperature of decomposition” value is 165 °C, the “temperature for 50% loss” value is 179 °C and the “temperature for 90% loss” value was found to be 193 °C. As for `O=C(O)C(F)(C(F)(F)C(F)(F)F)C(F)(F)C(F)(F)C(F)(F)C(F)(F)C(F)(F)C(F)(F)F` (centres unmarked) [Example M19, C6 F13 CF(C2 F5)COO^- H4 N^+], the “onset temperature of decomposition” value was found to be 153 °C, the “temperature for 50% loss” value amounted to 171 °C and the “temperature for 90% loss” value is 188 °C.

Regarding `O=C(O)C1(F)C(F)(F)C(F)(F)C(F)(F)C(F)(F)C1(F)F` [reference compound], the “onset temperature of decomposition” value turned out to be 100 °C, the “temperature for 50% loss” value stood at 110 °C and the “temperature for 90% loss” value is 120 °C.

Staying with this data set, now noted: neat salt, 10° C./min, nitrogen; listed as N2.
Regarding `O=C(O)C(F)(C(F)(F)F)C(F)(F)C(F)(F)C(F)(F)C(F)(F)C(F)(F)F` (centres unmarked) [Example M15, C5 F11 CF(CF3)COO^- H4 N^+], the “onset temperature of decomposition” value is 166 °C, the “temperature for 50% loss” value was 178 °C and the “temperature for 90% loss” value was 188 °C.

The same data set, now with this note: neat salt, 10° C./min, nitrogen; listed as N8.
For `O=C(O)C(F)(C(F)(F)F)C(F)(F)C(F)(F)C(F)(F)C(F)(F)C(F)(F)F` (centres unmarked) [Example M28, C5 F11 CF(CF3)COO^- Na^+], the “onset temperature of decomposition” value came to 236 °C, the “temperature for 50% loss” value amounted to 250 °C and the “temperature for 90% loss” value was 263 °C.
